The subject of one series is HHD×ERG^pb/pb mice. The settings on record: mouse, in vivo; SD.
In a further series the test system is HHD mice. The settings on record: mean from 3 mice ± SD.
Series [1] relates to metastatic melanoma patients. The settings on record: in combination with IL-2, metastatic melanoma patients; cited from earlier work.

On to QLWQFLLEL [ERG295], for which the “ERG295 responsive T-cells” value was 305 ± 49 in the series with HHD×ERG^pb/pb mice and 405 ± 120 with HHD mice (HHD mice, 3 immunizations at 7-day intervals). In addition, the “ERG295 responsive cells per million splenocytes” value in the series with HHD×ERG^pb/pb mice was determined as 177 ± 51 per million splenocytes; with HHD mice (HHD mice around 16 weeks old, 1 immunization), 275 ± 45 per million splenocytes.
As for “gp100:209:217(210M): HLA-A*0201 restricted melanoma epitope (IMDQVPFSV; UniProt P40967 209-217, looked up, variant T210M)”, the Median overall survival entry in series [1] is “significantly improved median overall survival”.

The record behind these values is publication PMC3864132 (Cancer immunology, immunotherapy : CII, 2013).
